One test concerns corneal kindled seizures. Nature of the test: Mouse corneal kindling model. To be noted: for Mean Seizure Score: Racine 0 to 5. The test is classed as in vivo, mice. How it is done:
After the mice reached a stable kindled state, the test compound or vehicle was administered and, at the previously determined TPE, each animal was given the electrical stimulus indicated above. […] One dose of LEV and two doses of Co.

Test [1] has as its system 6 Hz (44 mA) psychomotor seizures. Nature of the test: 6 Hz psychomotor seizure test, 44 mA (alone, combination with LEV, isobolographic study). The test is classed as in vivo, mice. In short, it runs like this:
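Mice dosed s.c. or p.o. at 0.01 mL/g, alone or with LEV at fixed dose ratios proportional to ED50 values. Focal seizures induced by corneal stimulation (6 Hz, 0.2 msec pulse, 3 sec, 44 mA); animals without stun, forelimb clonus, vibrissae twitch or Straub-tail were counted as protected. ED50 values derived, with combinations analysed isobolographically.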

The target in a further test is T1, human mGlu2 receptor (Homo sapiens, UniProt Q14416).
T1 construct: expressed in transfected cells; host or cells: CHO cells
Put plainly: [35S]GTPγS binding assay, mGluR2 PAM. To be noted: for Emax: maximal % effect relative to control glutamate response, EC20 glutamate, read-out: GTPγS-hmGluR2 PAM Emax. The test is classed as biochemical. A general note: GTPγS is a poorly hydrolysed GTP analogue; its binding reports G protein activation.

The next test concerns MES seizures. To be noted: in vivo; cited from earlier work.

Usually ED50 stands for the dose at which the effect has come halfway, by size or by number of responders. For orientation: Emax means the size of the effect at its maximum, as opposed to the concentration needed.

Entries after “also recorded” stand apart in the source; their conditions may differ. Read-outs that look alike come from different tables or passages of the source.

T1 sequence (Q14416 19-872): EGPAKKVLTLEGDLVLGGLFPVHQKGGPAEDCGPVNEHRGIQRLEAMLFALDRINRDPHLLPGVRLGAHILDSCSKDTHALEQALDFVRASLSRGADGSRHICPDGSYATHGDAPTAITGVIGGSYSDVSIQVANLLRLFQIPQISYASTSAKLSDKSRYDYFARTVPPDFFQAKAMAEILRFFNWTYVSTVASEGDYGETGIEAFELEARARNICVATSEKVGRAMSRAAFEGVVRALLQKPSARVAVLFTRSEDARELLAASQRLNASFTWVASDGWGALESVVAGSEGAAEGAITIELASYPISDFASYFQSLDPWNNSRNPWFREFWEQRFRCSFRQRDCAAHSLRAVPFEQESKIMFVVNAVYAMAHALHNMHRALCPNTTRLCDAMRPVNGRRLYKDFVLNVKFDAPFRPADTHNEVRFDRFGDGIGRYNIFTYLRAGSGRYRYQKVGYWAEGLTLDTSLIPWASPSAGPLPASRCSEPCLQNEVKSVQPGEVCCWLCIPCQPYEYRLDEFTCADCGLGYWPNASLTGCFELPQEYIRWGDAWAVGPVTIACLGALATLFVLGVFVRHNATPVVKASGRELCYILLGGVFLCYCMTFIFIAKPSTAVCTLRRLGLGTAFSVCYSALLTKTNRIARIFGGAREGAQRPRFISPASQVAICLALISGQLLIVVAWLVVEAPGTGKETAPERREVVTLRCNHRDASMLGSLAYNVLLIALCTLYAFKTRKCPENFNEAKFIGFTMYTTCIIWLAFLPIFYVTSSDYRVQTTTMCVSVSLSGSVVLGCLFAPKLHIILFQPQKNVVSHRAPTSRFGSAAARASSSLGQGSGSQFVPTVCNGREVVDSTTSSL

`Fc1ccc(N2CCN(Cc3ccn4c(CC5CC5)nnc4c3C(F)(F)F)CC2)c(F)c1` [Co. No. 1]: the “Seizure score (dose) Corneal kindling / Mean Seizure Score” value with corneal kindled seizures (20 mg/kg s.c., Racine score 0-5) stood at 3.7. In the test with corneal kindled seizures (Co. No. 1 20 mg/kg), the “# protected/# tested” value is reported as 5/16 and the “% Protected” value turned out to be 31%. Also, in the test with corneal kindled seizures (Co. No. 1 30 mg/kg), the “# protected/# tested” value is reported as 3/12, the “% Protected” value is given as 25% and the “Mean Seizure Score” value worked out at 4.0. Besides, in test [1] (Mus musculus, sc, 0.5 h, 2.5 mg/kg s.c., 0.5 h, read-out: # protected/# tested), the responders at 2.5 mg/kg was 0%. For the same compound, the responders at 10 mg/kg in test [1] (Mus musculus, sc, 0.5 h, 10 mg/kg s.c., 0.5 h, read-out: # protected/# tested (converted)) is 50%. Moreover, the responders at 15 mg/kg in test [1] (Mus musculus, sc, 0.5 h, 15 mg/kg s.c., 0.5 h, read-out: # protected/# tested (converted)) was 87.5%. In test [1] (Mus musculus, sc, 0.5 h, 20 mg/kg s.c., 0.5 h, read-out: # protected/# tested (converted)), the responders at 20 mg/kg was 100%. In addition, in test [1] (Mus musculus, sc, at TPE, compound alone, read-out: ED50 (95% CI) 44 mA), the median effective dose (ED50) was 10.2 mg/kg. For the same compound, the “ED50 (95% CI) 44 mA” value in test [1] (s.c., at TPE, compound alone) was 10.2 (3.1-12.4) mg/kg.
For `C[C@H](Oc1ccc(F)cc1F)c1ccn2c(CC3CC3)nnc2c1C(F)(F)F` [Co. No. 6-b, 3-(Cyclopropylmethyl)-7-[(1S)-1-(2,4-difluorophenoxy)ethyl]-8-(trifluoromethyl)[1,2,4]triazolo[4,3-a]pyridine], at human mGlu2 receptor, the Emax is 256%. Also, in test [1] (10 mg/kg p.o.), the “activity when administered alone” value is reported as “did not protect; also recorded: Co. No. 6-b 10 mg/kg, not active when administered alone”. The responders at 10 mg/kg in test [1] (Mus musculus, po, 0.5 h, 10 mg/kg p.o., 0.5 h, read-out: # protected/# tested (converted)) is 0%. Further, in test [1] (Mus musculus, po, 0.5 h, 15 mg/kg p.o., 0.5 h, read-out: # protected/# tested (converted)), the responders at 15 mg/kg is 50%. For the same compound, in test [1] (Mus musculus, po, 0.5 h, 20 mg/kg p.o., 0.5 h, read-out: # protected/# tested (converted)), the responders at 20 mg/kg is 75%. Further, the responders at 40 mg/kg in test [1] (Mus musculus, po, 0.5 h, 40 mg/kg p.o., 0.5 h, read-out: # protected/# tested (converted)) was 100%. The median effective dose (ED50) in test [1] (Mus musculus, po, 0.5 h, p.o., 0.5 h TPE, read-out: ED50 (95% CI) 44 mA) is 16.1 mg/kg. Also, in test [1] (p.o., 0.5 h TPE), the “ED50 (95% CI) 44 mA” value is 16.1 (13.0-20.1) mg/kg.
With `CCCCn1ccc(N2CCC(c3ccc(F)cc3F)CC2)c(Cl)c1=O` [Co. No. 25-a], the EC50 at human mGlu2 receptor (in presence of EC20 glutamate, read-out: GTPγS-hmGluR2 PAM pEC50 (converted)) is 85.1 nM. Further, at human mGlu2 receptor, the maximal effect (Emax) worked out at 261%. Further, the “activity when administered alone” value in test [1] (10 mg/kg s.c.) is “did not protect; also recorded: Co. No. 25-a (s.c.) 10 mg/kg tested in combination with LEV (i.p.)-Co. No. 25-a 10 mg/kg, not active when administered alone”. The responders at 5 mg/kg in test [1] (Mus musculus, sc, 0.25 h, 5 mg/kg s.c., 0.25 h, read-out: # protected/# tested) was 0%. Further, the responders at 10 mg/kg in test [1] (Mus musculus, sc, 0.25 h, 10 mg/kg s.c., 0.25 h, read-out: # protected/# tested (converted)) was 0%. In addition, the responders at 20 mg/kg in test [1] (Mus musculus, sc, 0.25 h, 20 mg/kg s.c., 0.25 h, read-out: # protected/# tested (converted)) is 25%. For the same compound, the responders at 30 mg/kg in test [1] (Mus musculus, sc, 0.25 h, 30 mg/kg s.c., 0.25 h, read-out: # protected/# tested (converted)) was 37.5%. Further, in test [1] (Mus musculus, sc, 0.25 h, 40 mg/kg s.c., 0.25 h, read-out: # protected/# tested (converted)), the responders at 40 mg/kg was 87.5%. Also, the median effective dose (ED50) in test [1] (Mus musculus, sc, 0.25 h, s.c., 0.25 hr TPE, read-out: ED50 (95% CI) 44 mA) was 29.1 mg/kg; in test [1] (Mus musculus, sc, 1 h, s.c., 1 hr TPE, read-out: ED50 (95% CI) 44 mA), 25.9 mg/kg. Further, the “ED50 (95% CI) 44 mA” value in test [1] (s.c., 0.25 hr TPE) is “ED50 (95% CI): 29.1 mg/kg (21.6 to 39.6)”; in test [1] (s.c., 1 hr TPE), 1 hr TPE: 25.9 mg/kg.
In the case of `CC[C@@H](C(N)=O)N1CCCC1=O` [LEV, (S)-2-(2-oxopyrrolidin-1-yl) butanamide, reference compound], the “activity in maximal electroshock (MES) seizure test” value with MES seizures is given as “no activity”. Also, the “# protected/# tested” value in the test with corneal kindled seizures (LEV 3 mg/kg) was 5/13; in test [1] (LEV (low-dose) control group 25 mg/kg) it was 1/8; in test [1] (LEV alone 10 mg/kg i.p., 1 h), “⅙”. Also, the “% Protected” value with corneal kindled seizures (LEV 3 mg/kg) is reported as 38%. The “Mean Seizure Score” value with corneal kindled seizures (LEV 3 mg/kg) came to 3.3. Also, the responders at 200 mg/kg in test [1] (Mus musculus, 6 Hz (44 mA), LEV alone 200 mg/kg, read-out: # protected/# tested (converted)) was 25%; in test [1] (Mus musculus, ip, LEV alone 200 mg/kg i.p., read-out: # protected/# tested (converted)) it was 25%. Moreover, the responders at 400 mg/kg is 44.4% in test [1] (Mus musculus, 6 Hz (44 mA), LEV alone 400 mg/kg, read-out: # protected/# tested (converted)) and 44.4% in test [1] (Mus musculus, ip, LEV alone 400 mg/kg i.p., read-out: # protected/# tested (converted)). The responders at 800 mg/kg in test [1] (Mus musculus, 6 Hz (44 mA), LEV alone 800 mg/kg, read-out: # protected/# tested (converted)) is 83.3%; in test [1] (Mus musculus, ip, LEV alone 800 mg/kg i.p., read-out: # protected/# tested (converted)), 83.3%. Moreover, the 50% effective dose (ED50) in test [1] (Mus musculus, ip, 1 h, 6 Hz (44 mA), LEV alone, i.p., 1 h TPE, read-out: LEV ED50 (95% CI)) was 345 mg/kg; in test [1] (Mus musculus, ip, 1 h, i.p., 1 h TPE, read-out: ED50 (95% CI) 44 mA, LEV alone) it was around 345 mg/kg. Also, the responders at 10 mg/kg in test [1] (Mus musculus, ip, 1 h, LEV alone 10 mg/kg i.p., 1 h, read-out: # protected/# tested (converted)) was 16.7%. The responders at 350 mg/kg in test [1] (Mus musculus, ip, LEV alone 350 mg/kg i.p., read-out: # protected/# tested (converted)) was 37.5%. Further, in test [1] (compound alone), the “Maximum Effect (% Protection)” value is recorded as 75%.

The values are drawn from US20250288584A1, “COMBINATIONS COMPRISING POSITIVE ALLOSTERIC MODULATORS OR ORTHOSTERIC AGONISTS OF METABOTROPIC GLUTAMATERGIC RECEPTOR SUBTYPE 2 AND THEIR USE” (JANSSEN PHARMACEUTICA NV, priority 2014, published 2025).
